By EC50 is commonly meant the concentration at which the effect is half-maximal. Usually IC50 stands for the concentration at which inhibition is half-maximal. Lower therefore signals higher potency.

Values joined by “and” are separate entries in the source; they are usually repeats but may differ in a detail not shown here. Equal values may be shown once. Active and inactive are the calls of the source.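 How the source made its calls: active means compounds giving half or more protection of infected cells from virus-caused growth loss, again on retest; inactive means the rest.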 Bounds are passed on as bounds.

Drawing on PubChem BioAssay AID179 (DTP/NCI, 2004), this text covers outcome, EC50 and IC50 for 48 compounds.

The subject of this assay is CEM cells HIV-1 protection, formazan growth assay. Nature of the assay: NCI AIDS Antiviral Assay. To be noted: for IC50: measured here: growth of uninfected CEM cells. The gist of the method: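 Human CEM cells, uninfected and HIV-1-infected, received five drug concentrations, and growth was read by soluble formazan assay. Compounds giving at least 50% protection were retested; reproducible 100% protection defined confirmed active.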

On to `CC1(Br)CC2OC3(Br)C=CC(C)(O)C2(CC1=O)C3(C)C` (stereo unspecified), for which the outcome was inactive. As to `O=C(CC/C(CC(=O)c1ccc(Cl)cc1)=N\O)Nc1cccc(Cl)c1`, the EC50 is greater than 347 µM and the IC50 worked out at 257 µM.

As to `CN(C)c1ccc(/C=C(\NC(=O)c2ccccc2)C(=O)NC(Cc2c[nH]c3ccccc23)C(=O)O)cc1` (stereo unspecified), the EC50 was greater than 100 µM and the IC50 is greater than 100 µM.

For `Clc1c(Cl)c2c(Cl)c(Cl)c1C[P+](c1ccccc1)(c1ccccc1)CC[P+](c1ccccc1)(c1ccccc1)Cc1c(Cl)c(Cl)c(c(Cl)c1Cl)C[P+](c1ccccc1)(c1ccccc1)CC[P+](c1ccccc1)(c1ccccc1)C2`, the EC50 is greater than 66.1 µM and the IC50 worked out at 4.68 µM.

Consider `CCOC(=O)CCNC(=O)c1cc(C)cc2c1Oc1c(cc(C)cc1C(=O)NCCC(=O)OCC)S2`, for which the EC50 was greater than 200 µM and the IC50 stood at 29.5 µM. The like results for `N#C/C(=C\c1ccccc1F)C(=O)c1ccccc1` were, in that order, greater than 75.9 µM and greater than 75.9 µM. The like results for `COc1ccccc1NC(=O)C(/C=N/C(N)=S)=C(\C)O` were, in that order, greater than 200 µM and greater than 200 µM. With `CC(=O)c1c(-c2cccc3ccccc23)c(C#N)c(=S)n(C2OC(CO)C(O)C(O)C2O)c1C` (stereo unspecified), the EC50 was greater than 200 µM; the IC50 was 132 µM and 53.7 µM. On to `OCC1(CO)CCCC(CO)(CO)C1O`, for which the EC50 was greater than 200 µM and the IC50 was greater than 200 µM. For `Cc1ccc(N=Nc2cc(=O)[nH]c(=O)[nH]2)cc1C`, the EC50 was greater than 200 µM and the concentration for half-maximal inhibition (IC50) amounted to 3.98 µM.

As to `CCCC(=O)NC1CCc2cc(OC)c(OC)c(OC)c2-c2ccc(OC)c(=O)cc21` (stereo unspecified), the EC50 is greater than 2 µM and the concentration for half-maximal inhibition (IC50) worked out at 0.0126 µM. Regarding `CC(=O)O[C@H]1C=CC23OC(=O)[C@]1(C)[C@H]2[C@H](C(=O)O)C12CC(=O)[C@@](CO)(CC[C@H]13)C2`, the result was inactive.

For `COC(=O)c1ccccc1/C=C1\Cc2ccc3c(c2C1=O)CCCC3`, the EC50 is greater than 200 µM and the IC50 is greater than 200 µM.

For the compound `C=C(C)C(=O)N1c2ccc(OC)cc2CC1C(=O)OCC` (stereo unspecified), the EC50 was greater than 200 µM and the concentration for half-maximal inhibition (IC50) is greater than 200 µM. Take `CCOC(=O)C1=c2[nH]c3cccc4cccc(c43)n2C(=O)CC1c1ccccc1` (stereo unspecified): the EC50 is greater than 100 µM and the concentration for half-maximal inhibition (IC50) came out at 75.9 µM.

As to `S=C(NNC1=NCCCCN1)Nc1ccccc1`, the EC50 is greater than 200 µM and the IC50 is 112 µM. The like results for `CC(C)(C)c1ccc(-n2c3nc(=O)n(-c4ccccc4C(F)(F)F)c(=O)c-3cc3ccccc32)cc1` were, in that order, greater than 200 µM and 15.8 µM. For the compound `O=C(N/N=C(/c1nc2ccc([N+](=O)[O-])cc2[nH]c1=O)C(O)c1ccc([N+](=O)[O-])cc1)c1ccncc1` (stereo unspecified), the EC50 is greater than 138 µM and the concentration for half-maximal inhibition (IC50) is 129 µM.

Take `CSc1cc(Cl)c(C(=O)Nc2ccccc2)cc1S(=O)(=O)n1cc[nH]c1=O`: the EC50 was greater than 200 µM and the IC50 is greater than 200 µM. Regarding `CCCCNC(=O)Sc1ccccc1C(=O)NCCC(N)=O`, the EC50 was determined as 0.933 µM and the IC50 was found to be 117 µM. For `O=C1/C(=C\c2cccc(Oc3ccccc3)c2)S(=O)(=O)C(c2ccccc2)N1c1cc(Cl)ccc1Cl` (stereo unspecified), in that order: greater than 200 µM and 3.31 µM.

Turning to `CCCCCCCCCCNC1CC(OC2CC(O)(C(O)CO)Cc3c(O)c4c(c(O)c32)C(=O)c2c(OC)cccc2C4=O)OC(C)C1O` (stereo unspecified), the outcome was inactive. On to `[O-]c1on[n+](-c2ccccc2)c1-c1ccccc1`, for which the EC50 is greater than 151 µM and the IC50 turned out to be 74.1 µM. As for `O=C(c1nc2ccc(Cl)cc2[nH]c1=O)C(O)c1cccc([N+](=O)[O-])c1` (stereo unspecified), the EC50 was greater than 186 µM and the concentration for half-maximal inhibition (IC50) worked out at 12 µM. The like results for `Cc1c(N=Nc2ccccc2)c(-c2ccccc2)n(C2OC(CO)C(O)C(O)C2O)c(=S)c1C#N` (stereo unspecified) were, in that order, greater than 200 µM and 15.1 µM.

As to `CC(=O)OC1C(=O)C(O)C(C)OC1O[C@@H]1C[C@@]2(C)[C@@H]3CC=C4[C@@H](C[C@H](O)C(=O)C4(C)C)[C@]3(C)C(=O)C[C@]2(C)[C@H]1[C@@](C)(O)C(=O)/C=C/C(C)(C)O` (stereo partly specified), the EC50 is greater than 0.501 µM and the concentration for half-maximal inhibition (IC50) is 0.0832 µM.

In the case of `CCOP(=O)(OCC)c1cc(NC(=O)c2cc(NC(=O)c3cc(NC(=O)Nc4cc(C(=O)Nc5cc(C(=O)Nc6cc(P(=O)(OCC)OCC)c7cccc(P(=O)(OCC)OCC)c7c6)n(C)c5)n(C)c4)cn3C)cn2C)cc2c(P(=O)(OCC)OCC)cccc12`, the EC50 is greater than 200 µM and the IC50 is greater than 200 µM. As for `Nc1nn2cc3c(nc2c1N=Nc1ccc(Cl)cc1)-c1ccccc1CC3`, the EC50 is greater than 100 µM and the IC50 is greater than 100 µM. For `COc1ccc(C(=O)C(C(=O)C(=O)Nc2nccs2)c2ccc(OC)cc2)cc1` (stereo unspecified), the EC50 was greater than 63.1 µM and the concentration for half-maximal inhibition (IC50) was greater than 63.1 µM.

For `O=C1CC(=O)NC(=NN2C(=O)CSC2c2ccc(Cl)c(Cl)c2)N1` (stereo unspecified), the EC50 is greater than 200 µM and the IC50 is 102 µM. The like results for `COC1(c2ccccc2)OC(=O)c2ccccc21` (stereo unspecified) were, in that order, greater than 200 µM and 83.2 µM. For `CCOC(=O)c1ccc(CSc2ccc(OC)cc2)cc1`, in that order: greater than 33.1 µM and 16.2 µM. For `COc1ccc2c(c1)C=CC1OC(C(C)=O)(C(C)=O)C(C=O)=CN21` (stereo unspecified), in that order: greater than 79.4 µM and 38.9 µM. As for `CCCCCCCCCC(=O)OCC1OC(n2cc(F)c(=O)[nH]c2=O)C(N)C(OC(=O)CCCCCCCCC)C1O` (stereo unspecified), the EC50 was greater than 31.6 µM and the IC50 is greater than 31.6 µM. Turning to `Cc1cccc(C)c1NC(=O)C(=O)Cc1nc2ccccc2s1`, the result was inactive. Take `O=C1N2Cc3c4ccc5c3CN3C(=O)N6Cc7c(ccc(c7CN1C6(c1ccccc1)C23c1ccccc1)OCCOCCNCCOCCO4)OCCOCCNCCOCCO5` (stereo unspecified): the EC50 is greater than 6.03 µM and the half-maximal inhibitory concentration (IC50) is greater than 6.03 µM.

Regarding `CCOC(=O)c1nc2ccc([N+](=O)[O-])cc2c2c1CCO2`, the EC50 was greater than 63.1 µM and the concentration for half-maximal inhibition (IC50) is greater than 63.1 µM. Take `Nc1nc(N)c(N=O)c(=O)[nH]1`: the EC50 was greater than 200 µM and the IC50 is greater than 200 µM.

On to `Cc1cccc2c3ccc4c(c3n(C)c12)C(=O)C=CC4=O`, for which the EC50 was greater than 49 µM and the concentration for half-maximal inhibition (IC50) is 24.5 µM.

For `COP(=O)(OC)/C(=C/c1cnc[nH]1)NC=O`, the EC50 is greater than 200 µM and the half-maximal inhibitory concentration (IC50) was greater than 200 µM. For the compound `CC(C)(C)NC(=O)CCC(CC(=O)NC(C)(C)C)S(=O)(=O)O` (stereo unspecified), the EC50 was greater than 200 µM and the IC50 is greater than 200 µM. Take `CC/C(=C(\c1ccccc1)c1ccc(OCCN(C)C)cc1)c1ccccc1`: the EC50 was greater than 83.2 µM and the concentration for half-maximal inhibition (IC50) turned out to be 14.8 µM. As for `CC1(CO)COc2ccccc2C1=O` (stereo unspecified), the EC50 was greater than 200 µM and the 50% inhibitory concentration (IC50) is greater than 200 µM. For `C=CCOc1ccccc1N=N/C(C#N)=N\Nc1ccccc1OCC=C`, the EC50 was greater than 200 µM and the IC50 came to 110 µM. For the compound `NC(CSS(=O)(=O)O)=NCCCCN=C(N)CSS(=O)(=O)O`, the EC50 is greater than 200 µM and the half-inhibitory concentration (IC50) is greater than 200 µM.

Consider `Cc1ccc(S(=O)(=O)OCCOCCOCCOCCOCCOS(=O)(=O)c2ccc(C)cc2)cc1`, for which the outcome was inactive. As to `O=C(O)Cc1ccc(SSc2ccc(CC(=O)O)cc2)cc1`, the EC50 is 46.8 µM and 129 µM; the IC50 is 1120 µM and > 200 µM.

Regarding `O=[N+]([O-])/C(Cl)=C(\Nc1ccccc1)C(Cl)=C(Cl)Cl`, the EC50 is greater than 200 µM and the IC50 is 32.4 µM.
